# Results from patent US10849838B2, “Biaromatic vitamin D analogs” (DSM IP ASSETS B.V., priority 2015, dated 2020).
# Biological target: T1, human vitamin D receptor (VDR) (Homo sapiens, UniProt P11473)
# T1 construct: expressed in transfected cells; host or cells: HEK293 cells (ATCC), transient transfection
# T1 sequence (P11473 127-423 limits assumed): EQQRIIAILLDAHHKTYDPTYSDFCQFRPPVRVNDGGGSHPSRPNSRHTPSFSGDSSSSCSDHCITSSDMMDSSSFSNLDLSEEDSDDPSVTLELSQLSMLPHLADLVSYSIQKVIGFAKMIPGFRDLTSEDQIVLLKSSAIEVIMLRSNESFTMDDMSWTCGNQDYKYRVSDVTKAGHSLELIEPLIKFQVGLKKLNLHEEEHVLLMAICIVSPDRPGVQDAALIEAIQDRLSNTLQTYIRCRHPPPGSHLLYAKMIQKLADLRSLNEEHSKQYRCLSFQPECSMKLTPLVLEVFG
# Assay: Human vitamin D receptor (VDR) agonist activity, GAL4-VDR LBD luciferase transactivation assay in transiently transfected HEK293 cells
# Assay type: cell-based
# Settings: hybrid VDR-GAL4 receptor, pFR-Luc luciferase reporter, 16 h incubation, read-out: Effective concentrations of half maximal activation (EC50)
# From the text: By way of example, the human vitamin D receptor (VDR) agonist activity of the claimed compounds can be tested using a cell based transactivation assay in an eukaryotic cell line. After a co-transfection, using a reporter plasmid construct and a hybrid receptor construct containing the ligand-binding domain of the human VDR linked to the DNA-binding domain of the yeast transcription factor GAL4, the cultured cells were stimulated by the VDR agonists. The hybrid VDR-GAL4 receptor binds the VDR agonists and transactivates luciferase reporter expression through the GAL4-response elements in the promoter of the luciferase gene (reporter construct). The VDR agonist binding and transactivation is determined by measuring the luciferase luminescence activity. The effective concentration of half maximal activation (EC50) was determined for the VDR agonists by means of dose-response experiments. The details of the protocol method of this test according to the invention are described in the example section. […]
row,EC50,SMILES
1,113 nM,CC/C(=C\C=C\C(O)(CC)CC)c1cccc(CCc2ccc(CO)c(C(C)O)c2)c1 (racemic) [Comp1]
2,7 nM,"CC/C(=C\C=C\C(O)(CC)CC)c1cccc(CCc2ccc(C(C)O)c(CO)c2)c1 (racemic) [I-a, (4E,6E)-3-ethyl-7-(3-(4-(1-hydroxyethyl)-3-(hydroxymethyl)phenethyl)phenyl)nona-4,6-dien-3-ol]"
